Source: PubChem BioAssay AID1259407 (Chemical Carcinogenesis Research Information System (CCRIS), 2018)
Calls of active or inactive are those of the source. The rule behind the calls is not given here. *1 amine or outer side, *2 acyl side, *3 side chain or, on linkers, in order; H or OH if unused. Where a SMILES comes first, the peptide text is derived from it. Bridges are numbered along the chain shown (N, C = ends). Roman numbers before positions name the chains, in order. [ ]: non-standard residue; d: D form. Actinocin(9to1) = Cc1c2oc3c(C)ccc(C(=O)[*:1])c3nc-2c(C(=O)[*:2])c(N)c1=O; NMeV = CN[C@H](C(=O)O)C(C)C; Sar = CNCC(=O)O

System: CCRIS mutagenicity, Ames/micronucleus/aberration tests
Assay: CCRIS mutagenicity studies
[1] = Test System: AMES SALMONELLA TYPHIMURIUM, Strain/Indicator: TA98, Metabolic Activation: NONE, Method: PREINCUBATION
[2] = Test System: AMES SALMONELLA TYPHIMURIUM, Strain/Indicator: TA100, Metabolic Activation: NONE, Method: PREINCUBATION
[3] = Test System: AMES SALMONELLA TYPHIMURIUM, Strain/Indicator: TA98, Metabolic Activation: RAT, LIVER, S-9, AROCLOR 1254, Method: STANDARD PLATE
[4] = Test System: AMES SALMONELLA TYPHIMURIUM, Strain/Indicator: TA98, Metabolic Activation: NONE, Method: STANDARD PLATE

SMILES: O=C(OCC1CO1)c1cccc(C(=O)OCC2CO2)c1 (stereo unspecified)
- mutagenic call (Test System: AMES SALMONELLA TYPHIMURIUM, Strain/Indicator: TA97, Metabolic Activation: HAMSTER, LIVER, S-9, AROCLOR 1254 (10%), Method: PREINCUBATION): inactive; negative
- mutagenic call (Test System: AMES SALMONELLA TYPHIMURIUM, Strain/Indicator: TA97, Metabolic Activation: NONE, Method: PREINCUBATION): active; positive
- mutagenic call (Test System: AMES SALMONELLA TYPHIMURIUM, Strain/Indicator: TA97, Metabolic Activation: RAT, LIVER, S-9, AROCLOR 1254 (10%), Method: PREINCUBATION): inactive; negative
- mutagenic call (Test System: AMES SALMONELLA TYPHIMURIUM, Strain/Indicator: TA98, Metabolic Activation: HAMSTER, LIVER, S-9, AROCLOR 1254 (10%), Method: PREINCUBATION): inactive; negative
- mutagenic call [1]: inactive; negative
- mutagenic call (Test System: AMES SALMONELLA TYPHIMURIUM, Strain/Indicator: TA98, Metabolic Activation: RAT, LIVER, S-9, AROCLOR 1254 (10%), Method: PREINCUBATION): inactive; negative
- mutagenic call (Test System: AMES SALMONELLA TYPHIMURIUM, Strain/Indicator: TA100, Metabolic Activation: HAMSTER, LIVER, S-9, AROCLOR 1254 (10%), Method: PREINCUBATION): active; positive
- mutagenic call [2]: active; positive
- mutagenic call (Test System: AMES SALMONELLA TYPHIMURIUM, Strain/Indicator: TA100, Metabolic Activation: RAT, LIVER, S-9, AROCLOR 1254 (10%), Method: PREINCUBATION): active; positive
- mutagenic call (Test System: AMES SALMONELLA TYPHIMURIUM, Strain/Indicator: TA1535, Metabolic Activation: HAMSTER, LIVER, S-9, AROCLOR 1254 (10%), Method: PREINCUBATION): active; positive
- mutagenic call (Test System: AMES SALMONELLA TYPHIMURIUM, Strain/Indicator: TA1535, Metabolic Activation: NONE, Method: PREINCUBATION): active; positive
- mutagenic call (Test System: AMES SALMONELLA TYPHIMURIUM, Strain/Indicator: TA1535, Metabolic Activation: RAT, LIVER, S-9, AROCLOR 1254 (10%), Method: PREINCUBATION): active; positive

SMILES: [N-]=[N+]=NC[C@H](O)c1ccccc1
- mutagenic call (Test System: AMES SALMONELLA TYPHIMURIUM, Strain/Indicator: TA100, Metabolic Activation: RAT, LIVER, S-9, PCB, Method: PREINCUBATION): active; positive

SMILES: CCOC(=O)CN=[N+]=[N-]
- mutagenic call (Test System: AMES SALMONELLA TYPHIMURIUM, Strain/Indicator: TA1530, Metabolic Activation: NONE, Method: STANDARD PLATE): active; positive

SMILES: CCN(CCC#N)c1cc(NC(C)=O)c(-n2nc3c(Br)cc(N)c(Cl)c3n2)cc1OC
- mutagenic call (Test System: AMES SALMONELLA TYPHIMURIUM, Strain/Indicator: TA98, Metabolic Activation: RAT LIVER S-9, AROCLOR 1254, Method: STANDARD PLATE): active; positive
- mutagenic call (Test System: AMES SALMONELLA TYPHIMURIUM, Strain/Indicator: TA100, Metabolic Activation: RAT LIVER S-9, AROCLOR 1254, Method: STANDARD PLATE): active; positive
- mutagenic call (Test System: AMES SALMONELLA TYPHIMURIUM, Strain/Indicator: TA104, Metabolic Activation: RAT LIVER S-9, AROCLOR 1254, Method: STANDARD PLATE): active; positive
- mutagenic call (Test System: AMES SALMONELLA TYPHIMURIUM, Strain/Indicator: YG1024, Metabolic Activation: RAT LIVER S-9, PHENOBARBITAL, 5,6-BENZOFLAVONE (10%), Method: PREINCUBATION): active; positive

SMILES: COC1=C(OC)C(=O)C(C)=CC1=O
- mutagenic call [1]: inactive; negative
- mutagenic call (Test System: AMES SALMONELLA TYPHIMURIUM, Strain/Indicator: TA98, Metabolic Activation: RAT, LIVER, S-9, PHENOBARBITAL AND 5,6-BENZOFLAVONE, Method: PREINCUBATION): inactive; negative
- mutagenic call [2]: inactive; negative
- mutagenic call (Test System: AMES SALMONELLA TYPHIMURIUM, Strain/Indicator: TA100, Metabolic Activation: RAT, LIVER, S-9, PHENOBARBITAL AND 5,6-BENZOFLAVONE, Method: PREINCUBATION): inactive; negative
- mutagenic call (Test System: AMES SALMONELLA TYPHIMURIUM, Strain/Indicator: TA102, Metabolic Activation: NONE, Method: PREINCUBATION): inactive; negative
- mutagenic call (Test System: AMES SALMONELLA TYPHIMURIUM, Strain/Indicator: TA102, Metabolic Activation: RAT, LIVER, S-9, PHENOBARBITAL AND 5,6-BENZOFLAVONE, Method: PREINCUBATION): inactive; negative
- mutagenic call (Test System: AMES SALMONELLA TYPHIMURIUM, Strain/Indicator: TA104, Metabolic Activation: NONE, Method: PREINCUBATION): inactive; negative
- mutagenic call (Test System: AMES SALMONELLA TYPHIMURIUM, Strain/Indicator: TA104, Metabolic Activation: RAT, LIVER, S-9, PHENOBARBITAL AND 5,6-BENZOFLAVONE, Method: PREINCUBATION): inactive; negative
- mutagenic call (Test System: AMES SALMONELLA TYPHIMURIUM, Strain/Indicator: TA2637, Metabolic Activation: NONE, Method: PREINCUBATION): inactive; negative
- mutagenic call (Test System: AMES SALMONELLA TYPHIMURIUM, Strain/Indicator: TA2637, Metabolic Activation: RAT, LIVER, S-9, PHENOBARBITAL AND 5,6-BENZOFLAVONE, Method: PREINCUBATION): inactive; negative

SMILES: CN1CC[C@]23c4c5ccc(O)c4O[C@H]2[C@@H](O)C=C[C@H]3[C@H]1C5
- mutagenic call [3]: inactive; negative

SMILES: O=[N+]([O-])c1cc2cc3ccc4cccc5ccc(c2o1)c3c45
- mutagenic call (Test System: AMES SALMONELLA TYPHIMURIUM, Strain/Indicator: TA98(NR), Metabolic Activation: NONE, Method: STANDARD PLATE): active; positive
- mutagenic call (Test System: AMES SALMONELLA TYPHIMURIUM, Strain/Indicator: TA98(NR), Metabolic Activation: RAT, LIVER, S-9, AROCLOR 1254, Method: STANDARD PLATE): active; positive
- mutagenic call [4]: active; positive
- mutagenic call [3]: active; positive

SMILES: CNc1ccc2ccc3ccc(O)cc3c2c1
- mutagenic call [3]: active; positive
- mutagenic call (Test System: AMES SALMONELLA TYPHIMURIUM, Strain/Indicator: TA98, Metabolic Activation: RAT, LIVER, S-9, AROCLOR, Method: STANDARD PLATE): active; positive

SMILES: Cc1c2oc3c(C)ccc(C(=O)N[C@@H]4C(=O)N[C@H](C(C)C)C(=O)N5CCC[C@H]5C(=O)N(C)CC(=O)N(C)[C@@H](C(C)C)C(=O)O[C@@H]4C)c3nc-2c(C(=O)N[C@@H]2C(=O)N[C@H](C(C)C)C(=O)N3CCC[C@H]3C(=O)N(C)CC(=O)N(C)[C@@H](C(C)C)C(=O)O[C@@H]2C)c(N)c1=O (I: T[dV]P[Sar][NMeV] / II: T[dV]P[Sar][NMeV]; ester I:1-I:C, II:1-II:C; linker I:N-II:N via Actinocin(9to1))
- mutagenic call (End Point: IN VITRO MICRONUCLEUS, Test System: CHO CELLS, Metabolic Activation: RAT, LIVER, S-9, AROCLOR 1254): active; positive
- mutagenic call (End Point: IN VITRO MICRONUCLEUS, Test System: V79 CELLS, Metabolic Activation: NONE): active; positive
- mutagenic call [4]: inactive; negative
- mutagenic call (Test System: AMES SALMONELLA TYPHIMURIUM, Strain/Indicator: TA100, Metabolic Activation: NONE, Method: STANDARD PLATE): inactive; negative
- mutagenic call (Test System: AMES SALMONELLA TYPHIMURIUM, Strain/Indicator: TA102, Metabolic Activation: NONE, Method: STANDARD PLATE): inactive; negative
- mutagenic call (Test System: AMES SALMONELLA TYPHIMURIUM, Strain/Indicator: TA1537, Metabolic Activation: NONE, Method: STANDARD PLATE): inactive; negative
- mutagenic call (Test System: E. COLI, Strain/Indicator: WP2 (HCR), Metabolic Activation: NONE, Method: STANDARD PLATE): inactive; negative
- mutagenic call (Test System: MOUSE LYMPHOMA, Strain/Indicator: L5178Y (TK+/TK-), Metabolic Activation: NONE, Method: SUSPENSION/PLATE): active; positive

SMILES: O=C(O)c1cc([N+](=O)[O-])ccc1[N+](=O)[O-]
- mutagenic call [1]: active; positive
- mutagenic call (Test System: AMES SALMONELLA TYPHIMURIUM, Strain/Indicator: TA98, Metabolic Activation: RAT, LIVER, S-9, KANECHLOR 500, Method: PREINCUBATION): active; positive
- mutagenic call (Test System: AMES SALMONELLA TYPHIMURIUM, Strain/Indicator: TA100, Metabolic Activation: RAT, LIVER, S-9, KANECHLOR 500, Method: PREINCUBATION): inactive; negative
